{"source": "patent US7906655B2", "about": "“Hepatitis C virus inhibitors” (Bristol-Myers Squibb Company, priority 2008, dated 2011)", "test_system": "HCV 1b genotype", "experiment": "HCV Replicon assay (HCV-neo replicon cells, wild-type)", "assay_type": "cell-based", "conditions": "HCV 1b genotype replicon, class symbols", "method_in_brief": "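Assay used wild-type HCV genotype 1b replicon cells carrying neo, with luciferase reporter read-outs in some formats.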", "data": [{"smiles": "O=C(Cc1ccccc1)N1C[C@@H](N2CCCC2)C[C@H]1c1nc2cc(C#Cc3ccc4[nH]c([C@@H]5C[C@H](N6CCCC6)CN5C(=O)Cc5ccccc5)nc4c3)ccc2[nH]1", "note": "[Example M37.2, (3′S,5′S,3″″S,5″″S)-5′,5″-(1,2-ethynediylbis(1H-benzimidazole-5,2-diyl))bis(1′-(phenylacetyl)-1,3′-bipyrrolidine)]", "values": [{"measurement": "EC50", "setting": "Hepatitis C virus", "result": "< 4.57", "unit": "nM"}]}, {"smiles": "CC(=O)N[C@@H](C(=O)N1CCC[C@H]1c1nc2cc(-c3ccc4nc([C@@H]5CCCN5C(=O)[C@H](NC(C)=O)c5ccccc5)[nH]c4c3)ccc2[nH]1)c1ccccc1", "note": "[Example F7, N,N′-(1H,1′H-5,5′-bibenzimidazole-2,2′-diylbis((2S)-2,1-pyrrolidinediyl((1R)-2-oxo-1-phenyl-2,1-ethanediyl)))diacetamide]", "values": [{"measurement": "EC50", "setting": "Hepatitis C virus", "result": "4.57 to 99", "unit": "nM"}]}, {"smiles": "COC(=O)N[C@H](C(=O)N1CCC[C@H]1c1nc2cc(C#Cc3ccc4[nH]c([C@@H]5CCCN5C(=O)[C@@H](NC(=O)OC)C(C)C)nc4c3)ccc2[nH]1)C(C)C", "note": "[Example M24, methyl ((1S)-1-(((2S)-2-(5-((2-((2S)-1-((2S)-2-((methoxycarbonyl)amino)-3-methylbutanoyl)-2-pyrrolidinyl)-1H-benzimidazol-5-yl)ethynyl)-1H-benzimidazol-2-yl)-1-pyrrolidinyl)carbonyl)-2-methylpropyl)carbamate]", "values": [{"measurement": "EC50", "setting": "Hepatitis C virus", "result": "< 4.57", "unit": "nM"}]}, {"smiles": "CN(C)[C@@H](C(=O)N1CCC[C@H]1c1nc2cc(C#Cc3ccc4[nH]c([C@@H]5CCCN5C(=O)[C@H]5CCCO5)nc4c3)ccc2[nH]1)c1ccccc1", "note": "[Example M53, (1R)-N,N-dimethyl-2-oxo-1-phenyl-2-((2S)-2-(5-((2-((2S)-1-((2R)-tetrahydro-2-furanylcarbonyl)-2-pyrrolidinyl)-1H-benzimidazol-5-yl)ethynyl)-1H-benzimidazol-2-yl)-1-pyrrolidinyl) ethanamine]", "values": [{"measurement": "EC50", "setting": "Hepatitis C virus", "result": "< 4.57", "unit": "nM"}]}, {"smiles": "O=C([C@H]1CCCO1)N1CCC[C@H]1c1nc2cc(CCc3ccc4[nH]c([C@@H]5CCCN5C(=O)[C@H]5CCCO5)nc4c3)ccc2[nH]1", "note": "[Example M42, 5,5′-(1,2-ethanediyl)bis(2-((2S)-1-((2R)-tetrahydro-2-furanylcarbonyl)-2-pyrrolidinyl)-1H-benzimidazole)]", "values": [{"measurement": "EC50", "setting": "Hepatitis C virus", "result": "4.57 to 99", "unit": "nM"}]}, {"smiles": "COC(=O)N[C@@H](C(=O)N1CCC[C@H]1c1nc2cc(-c3ccc4nc([C@@H]5CCCN5C(=O)[C@H](NC(=O)OC)c5ccccc5)[nH]c4c3)ccc2[nH]1)c1ccccc1", "note": "[Example F2, dimethyl(1H,1′H-5,5′-bibenzimidazole-2,2′-diylbis((2S)-2,1-pyrrolidinediyl((1R)-2-oxo-1-phenyl-2,1-ethanediyl)))biscarbamate]", "values": [{"measurement": "EC50", "setting": "Hepatitis C virus", "result": "< 4.57", "unit": "nM"}]}, {"smiles": "O=C(Cc1ccccc1)N1C[C@H](O)C[C@H]1c1nc2cc(C#Cc3ccc4[nH]c([C@@H]5C[C@@H](O)CN5C(=O)Cc5ccccc5)nc4c3)ccc2[nH]1", "note": "[Example M37.1, (3R,5S,3′R,5′S)-5,5′-(1,2-ethynediylbis(1H-benzimidazole-5,2-diyl))bis(1-(phenylacetyl)-3-pyrrolidinol)]", "values": [{"measurement": "EC50", "setting": "Hepatitis C virus", "result": "< 4.57", "unit": "nM"}]}, {"smiles": "COC(=O)N[C@H](C)C(=O)N1CCC[C@H]1c1nc2cc(C#Cc3ccc4[nH]c([C@@H]5CCCN5C(=O)[C@@H](C)NC(=O)OC)nc4c3)ccc2[nH]1", "note": "[Example M26, methyl ((1R)-2-((2S)-2-(5-((2-((2S)-1-(N-(methoxycarbonyl)-D-alanyl)-2-pyrrolidinyl)-1H-benzimidazol-5-yl)ethynyl)-1H-benzimidazol-2-yl)-1-pyrrolidinyl)-1-methyl-2-oxoethyl)carbamate]", "values": [{"measurement": "EC50", "setting": "Hepatitis C virus", "result": "< 4.57", "unit": "nM"}]}, {"smiles": "C[C@@H](NC(=O)OCc1ccccc1)c1nc2cc(CCc3ccc4nc([C@@H](C)NC(=O)OCc5ccccc5)[nH]c4c3)ccc2[nH]1", "note": "[OL6, benzyl ((1R)-1-(5-(2-(2-(1R)-1-(((benzyloxy)carbonyl)amino)ethyl-1H-benzimidazol-6-yl)ethyl)-1H-benzimidazol-2-yl)ethyl)carbamate]", "values": [{"measurement": "EC50", "result": "100 to 999", "unit": "nM"}]}, {"smiles": "CC(=O)N1CCC[C@H]1c1nc2ccc(C#Cc3ccc4[nH]c([C@@H]5CCCN5C(=O)CC5CC5)nc4c3)cc2[nH]1", "note": "[Example M54.32, 5-((2-((2S)-1-acetyl-2-pyrrolidinyl)-1H-benzimidazol-6-yl)ethynyl)-2-((2S)-1-(cyclopropyl-acetyl)-2-pyrrolidinyl)-1H-benzimidazole]", "values": [{"measurement": "EC50", "setting": "Hepatitis C virus", "result": "4.57 to 99", "unit": "nM"}]}, {"smiles": "O=C(Cc1cccnc1)N1CCC[C@H]1c1nc2cc(CCc3ccc4[nH]c([C@@H]5CCCN5C(=O)Cc5cccnc5)nc4c3)ccc2[nH]1", "note": "[Example M45.2, 5,5′-(1,2-ethanediyl)bis(2-((2S)-1-(3-pyridinylacetyl)-2-pyrrolidinyl)-1H-benzimidazole)]", "values": [{"measurement": "EC50", "setting": "Hepatitis C virus", "result": "4.57 to 99", "unit": "nM"}]}, {"smiles": "CC(=O)N1CCC[C@H]1c1nc2ccc(C#Cc3ccc4[nH]c([C@@H]5CCCN5C(=O)c5cccnc5)nc4c3)cc2[nH]1", "note": "[Example M54.22, 5-((2-((2S)-1-acetyl-2-pyrrolidinyl)-1H-benzimidazol-6-yl)ethynyl)-2-((2S)-1-(3-pyridinylcarbonyl)-2-pyrrolidinyl)-1H-benzimidazole]", "values": [{"measurement": "EC50", "setting": "Hepatitis C virus", "result": "100 to 999", "unit": "nM"}]}, {"smiles": "O=C(CCOc1ccccc1)N1CCC[C@H]1c1nc2ccc(C#Cc3ccc4[nH]c([C@@H]5CCCN5C(=O)[C@H]5CCCO5)nc4c3)cc2[nH]1", "note": "[Example M54.15, 5-((2-((2S)-1-(3-phenoxypropanoyl)-2-pyrrolidinyl)-1H-benzimidazol-6-yl)ethynyl)-2-((2S)-1-((2R)-tetrahydro-2-furanylcarbonyl)-2-pyrrolidinyl)-1H-benzimidazole]", "values": [{"measurement": "EC50", "setting": "Hepatitis C virus", "result": "4.57 to 99", "unit": "nM"}]}, {"smiles": "C[C@@H](C(=O)N1CCC[C@H]1c1nc2cc(C#Cc3ccc4[nH]c([C@@H]5CCCN5C(=O)[C@H](C)c5ccccc5)nc4c3)ccc2[nH]1)c1ccccc1", "note": "[Example M1, 5,5′-(1,2-ethynediyl)bis(2-((2S)-1-((2R)-2-phenylpropanoyl)-2-pyrrolidinyl)-1H-benzimidazole)]", "values": [{"measurement": "EC50", "setting": "Hepatitis C virus", "result": "< 4.57", "unit": "nM"}]}, {"smiles": "CN(C)[C@@H](C(=O)N1CCC[C@H]1c1nc2cc(C#Cc3ccc4nc([C@@H]5CCCN5C(=O)[C@@H](c5ccccc5)N(C)C)[nH]c4c3)ccc2[nH]1)c1ccccc1", "note": "[Example M19, (1R)-2-((2S)-2-(5-((2-((2S)-1-((2R)-2-(dimethylamino)-2-phenylacetyl)-2-pyrrolidinyl)-1H-benzimidazol-6-yl)ethynyl)-1H-benzimidazol-2-yl)-1-pyrrolidinyl)-N,N-dimethyl-2-oxo-1-phenylethanamine]", "values": [{"measurement": "EC50", "setting": "Hepatitis C virus", "result": "< 4.57", "unit": "nM"}]}, {"smiles": "COC(=O)N[C@H](C(=O)N1CCC[C@H]1c1nc2cc(C#CC#Cc3ccc4[nH]c([C@@H]5CCCN5C(=O)[C@@H](NC(=O)OC)C(C)C)nc4c3)ccc2[nH]1)C(C)C", "note": "[Example M57.1, Methyl((1S)-1-(((2S)-2-(5-(4-(2-((2S)-1-((2S)-2-((methoxycarbonyl)amino)-3-methylbutanoyl)-2-pyrrolidinyl)-1H-benzimidazol-5-yl)-1,3-butadiyn-1-yl)-1H-benzimidazol-2-yl)-1-pyrrolidinyl)carbonyl)-2-methylpropyl)carbamate]", "values": [{"measurement": "EC50", "setting": "Hepatitis C virus", "result": "< 4.57", "unit": "nM"}]}, {"smiles": "O=C(c1cccs1)N1CCC[C@H]1c1nc2cc(C#Cc3ccc4nc([C@@H]5CCCN5C(=O)[C@H]5CCCO5)[nH]c4c3)ccc2[nH]1", "note": "[Example M54.4, 5-((2-((2S)-1-((2R)-tetrahydro-2-furanylcarbonyl)-2-pyrrolidinyl)-1H-benzimidazol-6-yl)ethynyl)-2-((2S)-1-(2-thienylcarbonyl)-2-pyrrolidinyl)-1H-benzimidazole]", "values": [{"measurement": "EC50", "setting": "Hepatitis C virus", "result": "< 4.57", "unit": "nM"}]}, {"smiles": "CCC(=O)N1CCC[C@H]1c1nc2cc(C#Cc3ccc4[nH]c([C@@H]5CCCN5C(=O)CC)nc4c3)ccc2[nH]1", "note": "[Example M2]", "values": [{"measurement": "EC50", "result": "4.57 to 99", "unit": "nM"}]}]}
